The values that follow come from patent US7335352B1, “Method of identifying agents that inhibit quorum sensing activity of gamma-proteobacteria” (priority 2003, dated 2008).

Test [1] deals with P. aeruginosa PAO1. The format is cell-based, Pseudomonas aeruginosa. The settings on record: for Yield: substrate as energy source; for Use as sole source of energy or nitrogen: MES 5.5 media; for Utilization as an energy source: pH 5.5. How it is done: (§1) Media and growth conditions. LB, amended with antibiotics when appropriate, was used for growth and maintenance of all strains unless otherwise stated. For the 3OC12HSL-dependent enrichment of strain PAI-A and other growth experiments performed on this strain, modified “MES 5.5” defined-medium was used to enrich and study Variovorax paradoxus VAI-C (21). These modifications to the medium included buffering with 5 mM 3-(N-morpholino)-propanesulfonic acid (MOPS) at pH 7.2 and the addition of sodium sulfate (14 g·liter^−1) and magnesium chloride (4 g·liter^−1). For growth experiments with P. aeruginosa, “MES 5.5” defined medium was used as described previously (21) with the exception that it contained sodium sulfate, not sulfite, as S-source, a typographical error in the reported recipe. Unless otherwise noted, the medium was buffered to a pH of 5.5 with 5 mM 2-(N-morpholino)-ethanesulfonic acid (MES). Ammonium-free “MES 5.5” basal medium was used to examine the utilization of AHLs and HSL as potential nitrogen sources. 100 mM stock solutions of AHLs were prepared by dissolving AHLs in ethyl acetate that had been acidified with glacial acetic acid (0.01% v/v), and stocks were stored at −20° C. AHLs used in these studies were: N-3-oxododecanoyl-L-homoserine lactone (3OC12HSL; Quorum Sciences Inc., Iowa City Iowa), N-3-oxohexanoyl-L-homoserine lactone (3OC6HSL; Sigma), and from Fluka: N-3-butanoyl-DL-homoserine lactone (C4HSL), N-3-hexanoyl-DL-homoserine lactone (C6HSL), N-3-heptanoyl-DL-homoserine lactone (C7HSL), N-3-octanoyl-DL-homoserine lactone (C8HSL), N-3-[…], N-3-dodecanoyl-DL-homoserine lactone (C12HSL), N-3-tetradecanoyl-DL-homoserine lactone (C14HSL). For growth experiments, the AHL was dispensed into sterile tubes, the ethyl acetate was removed by evaporation under a stream of sterile air, and sterile medium was added to the dried AHL that remained. Stocks of L-HSL (Sigma) were prepared just prior to their use from well-desiccated reagent stored at −20° C. […] Cells were grown in 5 ml of medium in 18-mm tubes with shaking at 37° C. unless otherwise noted. AHL molecules are stable for approximately 30 days under the conditions of low pH in our defined medium (9, 34). Unless noted, all other reagents were of reagent grade.
(§2) Growth studies. Optical density measurements were performed at 600 nm using a Spectronic 20 spectrophotometer. […] When care was taken to vortex tubes gently, the changes in optical density reflecting growth could be monitored accurately. Molar growth yields were determined in the defined media containing the indicated substrate at a final concentration of 1 or 2 mM. For both Pseudomonas PAI-A and P. aeruginosa PAO1, factors for converting optical density to cell dry mass were determined by growing cells in media containing succinate as the energy source and NH4Cl as the nitrogen source, washing the cells with 50 mM ammonium acetate buffer (pH 5.5), and drying cell samples to a constant weight. Such determinations were made in quadruplicate.

For test [2], the system named is Pseudomonas strain PAI-A. The format is cell-based. How it is done: as §1, §2
In test [3] the target is T1, PvdQ AHL acylase (Pseudomonas aeruginosa, UniProt Q9I194).
T1 construct: The deduced coding region for PvdQ (Gene PA2385; www.pseudomonas.com) was amplified from the genomic DNA; expressed in transfected cells; host or cells: E. coli BL21PRO carrying pPvdQ-PROTet (pPROTet.E133-derived, aTc-inducible)
Briefly: AHL degradation by resting E. coli cells expressing recombinant PvdQ (LC/APCI-MS). It is filed as cell-based, P. aeruginosa. The settings on record: for HSL-releasing degradation by E. coli expressing recombinant PvdQ: resting cells OD600 1.2, MOPS pH 7.2, 18° C., 10 μM 3OC12HSL; for Product accumulation in PvdQ-expressing E. coli suspensions: incubated with 10 μM 3OC12HSL. An excerpt:
(§3) Analysis of cell-free culture and reaction fluids. […] Dilutions were made using “MES 5.5” medium.
Cloning and expression of pvdQ (PA2385) encoding a putative P. aeruginosa AHL acylase. Genomic DNA was isolated from P. aeruginosa PAO1 using the DNeasy™ tissue kit (QIAGEN) and used as a template for PCR. The deduced coding region for PvdQ (Gene PA2385; www.pseudomonas.com) was amplified from the genomic DNA using the following primers: 5′-[…]-3′ (SEQ ID NO:6) and 5′-[…]-3′ (SEQ ID NO:7; bold print indicates HindIII and NotI restriction sites, respectively), cloned into the appropriately digested expression vector, pPROTet.E133 (Clontech), and transformed into E. coli BL21PRO. Recombinant AHL acylase activity was examined as follows. After growth in LB medium containing spectinomycin (50 μg ml^−1) and chloramphenicol (34 μg ml^−1), and after gene induction by the addition of anhydrotetracycline (aTc, 100 ng ml^−1) at 18° C., cells were pelleted and resuspended to a final optical density of 1.2 in MOPS buffered media (pH 7.2) containing 10 μM 3OC12HSL. Recombinant cells that had not been induced with aTc were used as a negative control. Reaction mixtures were incubated at 18° C.; 150 μl samples were removed at 0, 15, 30, and 60 min and analyzed for AHL disappearance and product appearance via LC/APCI-MS (see above).

The test system of test [4] is Pseudomonas strain PAI-A. Kind of test: TLC of reaction fluids of dense PAI-A cell suspensions incubated with AHL. It is filed as cell-based. To be noted: dense PAI-A cell suspension; 25 mM C12HSL.
From the text: as §3

The test system of test [5] is P. aeruginosa PAO1. To be noted: dense PAO1 cell suspension; 25 mM C12HSL.
From the text: Analysis of cell-free culture and reaction fluids. For the initial characterization of the intermediates in AHL degradation, a TLC method was used (16).
Test [6] concerns P. aeruginosa PA14. Briefly: Growth of P. aeruginosa PA14 on 3OC12HSL as sole energy source. It is filed as cell-based, Pseudomonas aeruginosa. The settings on record: defined ammonia-replete media, pH 5.5 and 7.2, naive cells after lag. The method, then: Media and growth conditions. LB, amended with antibiotics when appropriate, was used for growth and maintenance of all strains unless otherwise stated. For the 3OC12HSL-dependent enrichment of strain PAI-A and other growth experiments performed on this strain, modified “MES 5.5” defined-medium was used to enrich and study Variovorax paradoxus VAI-C (21). These modifications to the medium included buffering with 5 mM 3-(N-morpholino)-propanesulfonic acid (MOPS) at pH 7.2 and the addition of sodium sulfate (14 g·liter^−1) and magnesium chloride (4 g·liter^−1). For growth experiments with P. aeruginosa, “MES 5.5” defined medium was used as described previously (21) with the exception that it contained sodium sulfate, not sulfite, as S-source, a typographical error in the reported recipe. Unless otherwise noted, the medium was buffered to a pH of 5.5 with 5 mM 2-(N-morpholino)-ethanesulfonic acid (MES). Ammonium-free “MES 5.5” basal medium was used to examine the utilization of AHLs and HSL as potential nitrogen sources. 100 mM stock solutions of AHLs were prepared by dissolving AHLs in ethyl acetate that had been acidified with glacial acetic acid (0.01% v/v), and stocks were stored at −20° C. […]

The mark [7] stands for this setting: P. aeruginosa PAO1, minimal salts media pH 5.5.
The mark [8] stands for this setting: strain PAI-A, minimal salts media pH 7.2.

Each structure is given as a SMILES string. “Also recorded” adds a separate entry of the source. Like-named read-outs stand apart in the source and are kept apart here.

T1 sequence (Q9I194 24-193): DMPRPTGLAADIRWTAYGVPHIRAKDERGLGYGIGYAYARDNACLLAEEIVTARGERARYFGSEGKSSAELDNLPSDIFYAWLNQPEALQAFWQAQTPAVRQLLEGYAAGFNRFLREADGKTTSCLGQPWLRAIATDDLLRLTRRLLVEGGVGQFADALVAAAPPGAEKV
T1 sequence (Q9I194 217-762): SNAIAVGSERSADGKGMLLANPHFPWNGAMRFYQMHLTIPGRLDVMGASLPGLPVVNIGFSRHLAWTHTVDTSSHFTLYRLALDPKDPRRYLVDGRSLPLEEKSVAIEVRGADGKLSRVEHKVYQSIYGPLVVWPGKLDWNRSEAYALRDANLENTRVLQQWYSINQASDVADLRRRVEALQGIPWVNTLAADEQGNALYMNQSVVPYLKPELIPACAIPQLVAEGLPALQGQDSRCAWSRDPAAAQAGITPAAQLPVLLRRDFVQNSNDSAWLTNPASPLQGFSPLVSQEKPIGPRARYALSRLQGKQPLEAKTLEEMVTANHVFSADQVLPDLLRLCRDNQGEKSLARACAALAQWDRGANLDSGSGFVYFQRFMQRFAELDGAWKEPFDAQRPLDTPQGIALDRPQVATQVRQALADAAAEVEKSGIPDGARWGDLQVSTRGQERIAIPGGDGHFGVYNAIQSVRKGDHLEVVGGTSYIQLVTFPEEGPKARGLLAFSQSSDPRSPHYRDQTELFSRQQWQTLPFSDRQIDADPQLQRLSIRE

As for `CCCCCCCCCCCC(=O)O` [Dodecanoate], the Yield in test [1] (setting [7]) was 141 ± 4 g/mol; in test [2] (setting [8]) it was 155 ± 8.4 g/mol.

For the molecule `CCCCCCCCCC(=O)NC1CCOC1=O` (racemic) [C10-DL-HSL, N-3-decanoyl-DL-homoserine lactone], in test [3], the “HSL-releasing degradation by E. coli expressing recombinant PvdQ” value (“HSL-releasing degradation” for short) was “catalyzed the HSL-releasing degradation”. Further, in test [1] (setting [7]), the Doubling time was 14.0 ± 3.8 h and the Yield is 97 ± 3 g/mol. In test [2] (setting [8]), the “Yield (qualitative)” value is “+, ND^”.

In the case of `O=C(O)CCC(=O)O` [Succinate], the Doubling time in test [1] (setting [7]) was 0.6 ± .09 h; in test [2], 0.583 h; in test [2] (pH 7.2) it was 0.6 ± .02 h. In addition, the Yield in test [1] (setting [7]) was determined as 43 ± 3 g/mol; in test [2] (pH 7.2), 49 ± 3.8 g/mol.

Turning to `CCn1cc(C(=O)O)c(=O)c2ccc(C)nc21` [nalidixate], in test [2] (PAI-A, 30 μg nalidixate·ml^−1), the “Growth in media containing the agent” value is reported as “did not grow”.

Regarding `CCCCCCCCCC(=O)O` [Decanoate], the Yield in test [1] (setting [7]) was 130 ± 3 g/mol; in test [2] (setting [8]), 126 ± .5 g/mol.

Consider `CCCCCCCCCCCC(=O)NC1CCOC1=O` (racemic) [C12-DL-HSL, N-3-dodecanoyl-DL-homoserine lactone], for which, in test [3], the “HSL-releasing degradation” value was “catalyzed the HSL-releasing degradation”. In addition, the “AHL-dependent release of ninhydrin-reactive materials (HSL, homoserine) by TLC” value in test [4] and in test [5] was “AHL-dependent release of ninhydrin-reactive materials” throughout. The Doubling time in test [1] (setting [7]) came to 14.9 ± 7.5 h; in test [2] (setting [8]), 16.5 ± 3 h. The Yield came to 84 ± 7 g/mol in test [1] (setting [7]) and 80 ± 18 g/mol in test [2] (setting [8]).

For `N[C@H]1CCOC1=O` [HSL, homoserine lactone], the “Product accumulation in PvdQ-expressing E. coli suspensions” value in test [3] is recorded as “accumulation of stoichiometric amounts”. Moreover, in test [1] (P. aeruginosa PAO1), the “Use as sole source of energy or nitrogen” value is reported as “did not use” and the “Utilization as an energy source” value was “Neither strain PAI-A nor PAO1 used; also recorded: did not grow”. The “Utilization as an energy source” value in test [2] (strain PAI-A, pH 7.2) was “Neither strain PAI-A nor PAO1 used”.

`CCCCCCCCCCCCCC(=O)NC1CCOC1=O` (racemic) [C14-DL-HSL, N-3-tetradecanoyl-DL-homoserine lactone]: the “HSL-releasing degradation” value in test [3] is given as “catalyzed the HSL-releasing degradation”. In test [1] (setting [7]), the Doubling time was 21.0 ± 5.3 h and the Yield turned out to be 84 ± 12 g/mol. In test [2] (setting [8]), the “Yield (qualitative)” value is on record as “+, ND^”.

On to `CCCCCCCCCC(=O)CC(=O)NC(CCO)C(=O)O` (centres unmarked) [3OC12-homoserine], for which, in test [3], the “Product accumulation in PvdQ-expressing E. coli suspensions” value is on record as “No 3OC12-homoserine accumulation was observed”.

In the case of `N[C@@H](CCO)C(=O)O` [homoserine], in test [1] (P. aeruginosa PAO1), the “Use as sole source of energy or nitrogen” value is on record as “did not use” and the “Utilization as an energy source” value is “did not grow”.

For the molecule `CCCCCCCCCC(=O)CC(=O)N[C@H]1CCOC1=O` [3OC12-L-HSL, N-3-oxododecanoyl-L-homoserine lactone], the “HSL-releasing degradation” value in test [3] is recorded as “degraded 3OC12HSL; also recorded: Within an hour, the AHL disappeared”. Moreover, the Doubling time in test [6] was 11 to 25 days; in test [1] (setting [7]), 25.0 ± 3 h; in test [1] (PAO1, defined ammonia-replete media, pH 5.5 and 7.2, naive cells after lag), 264 to 600 h; in test [2] (setting [8]) it was 25.0 ± 3.5 h. The Yield in test [1] (setting [7]) was 76 ± 10 g/mol; in test [2] (setting [8]), 84 ± .2 g/mol.

As for `CCCCCCCCCCCCCC(=O)O` [Tetradecanoate], the Yield in test [1] (setting [7]) was found to be 177 ± 16 g/mol; in test [2] (setting [8]), 198 ± 3 g/mol.

Consider `CCCC(=O)NC1CCOC1=O` (racemic) [C4HSL, N-3-butanoyl-DL-homoserine lactone], for which the “Degradation of short chain AHL given as co-substrate” value in test [1] (PAO-1, 1 mM C4HSL in 3OC12HSL-containing media) is reported as “did not degrade detectable amounts”; in test [2] (PAI-A, 1 mM C4HSL in 3OC12HSL-containing media), “did not degrade detectable amounts”.

Regarding `CCCCCCCC(=O)NC1CCOC1=O` (racemic) [C8-DL-HSL, N-3-octanoyl-DL-homoserine lactone], the “HSL-releasing degradation” value in test [3] is recorded as “catalyzed the HSL-releasing degradation”. For the same molecule, in test [1] (setting [7]), the Doubling time is recorded as 15.0 ± 2 h and the Yield is 95 ± 4 g/mol. In addition, the “Yield (qualitative)” value in test [2] (setting [8]) was “+, ND^b”.
